Key:
respiratory complex I = assay: Respiration in double-permeabilized HepG2 cells; type: biochemical; settings: 100 μM etomoxir
Experimental: When permeabilized cells were treated with alamethicin to form pores of 3-6 kDa in the mitochondrial inner membrane (“double-permeabilized” cells) and complex I-mediated respiration was directly assessed (FIG. 6F), 10 μg/mL alamethicin was added at 37° C. 15 minutes prior to measurements (Divakaruni, A. S., Andreyev, A. Y., Rogers, G. W., and Murphy, A. N. (2017a) In situ measurements of mitochondrial matrix enzyme activities using plasma and mitochondrial membrane permeabilization agents. Anal. Biochem. 17, 30385-8). Double-permeabilized cells were offered 10 μM cytochrome c in the experimental medium and either 10 mM NADH or 10 mM succinate with 2 μM rotenone to drive respiration.

3T3-L1 adipocytes = assay: Maximal respiration in 3T3-L1 adipocytes (positive control); type: cell-based; settings: 3 μM etomoxir
Experimental: (§1) All respirometry studies were conducted in either a Seahorse XF96 or XFe96 Analyzer. All experiments were conducted at 37° C., and at pH 7.4 (intact cells) or 7.2 (permeabilized cells and isolated mitochondria). Calculation of respiratory parameters was made according to standard protocols (Divakaruni, A. S., Paradyse, A., Ferrick, D. A., Murphy, A. N., and Jastroch, M. (2014a) Analysis and interpretation of microplate-based oxygen consumption and pH data. Meth. Enzym 547, 509-54), and all rates were corrected for non-mitochondrial respiration/background signal by subtracting the oxygen consumption rate insensitive to rotenone plus antimycin A.
(§2) Detailed description of FIG. 5. (FIG. 5A) Maximal FCCP-stimulated respiration in response to 3 μM etomoxir in six cell types (experimental conditions in Materials and Methods). […] (n≥3 independent biological replicates). (FIG. 5B) (Left) Maximal respiration in HepG2 cells offered 8 mM glucose, 2 mM glutamine, and 2 mM pyruvate in the experimental medium with BPTES and UK5099 (both at 3 μM)±3 μM etomoxir. (n=4 independent biological replicates). (Right) Maximal respiration in 3T3-L1 adipocytes offered 1 mM glucose and 0.5 mM carnitine in the experimental medium with increasing concentrations of etomoxir. (n=3 independent biological replicates). […]

HepG2 hepatoma cells = assay: Maximal respiration in intact HepG2 hepatoma cells (positive control); type: cell-based; settings: 3 μM etomoxir
Experimental: as §1, §2

BMDMs = assay: Mass spectrometry-based metabolomics of BMDMs; type: cell-based, mouse; settings: IL-4
Experimental: Cell. 173, 470-484. Briefly, cells were seeded in 6-well dishes at 1×10^6 cells/well. Cells were treated with IL-4 with and without etomoxir co-treatments (3 μM or 200 μM) similarly to other experiments. To extract intracellular metabolites, cells were briefly rinsed with cold 150 mM ammonium acetate (pH 7.3), followed by addition of 1 ml cold 80% MeOH on dry ice. Cells were detached with cell scrapers and suspensions transferred into centrifuge tubes. After rigorous mixing, the suspension was pelleted by centrifugation (1.3×104 rpm, 4° C.). The supernatant was transferred into a glass vial, metabolites were dried down under vacuum, and resuspended in 50% (v/v) acetonitrile including heavy isotope-labeled amino acids as internal standards (Chen, W. W., Freinkman, E. and Sabatini, D. M. (2017) Rapid immunopurification of mitochondria for metabolite profiling and absolute quantification of matrix metabolites. Nat. Protoc. 12, 2215-2231).
For the mass spectrometry-based analysis of the sample, 5 μL were injected onto a Luna NH2 (150 mm×2 mm, Phenomenex) column. The samples were analyzed with an UltiMate 3000RSLC (Thermo Scientific) coupled to a Q Exactive mass spectrometer (Thermo Scientific). The Q Exactive was run with polarity switching (+3.50 kV/−3.50 kV) in full scan mode with an m/z range of 65-975. Separation was achieved using A) 5 mM NH4AcO (pH 9.9) and B) ACN. The gradient started with 15% A) going to 90% A) over 18 min, followed by an isocratic step for 9 min and reversal to the initial 15% A) for 7 min. Metabolites were quantified with El Maven (v0.2.4) using accurate mass measurements (≤3 ppm) and retention times of pure standards. Data analysis was performed using the statistical language R. For the PCA and clustering analyses, only metabolites with an ANOVA p-value≤0.05 were incorporated. For visualization using heatmaps, metabolites were scaled across samples but not across metabolites. To assess what metabolites contributed the most to a given metabolic phenotype, we calculated the correlation between the loading vector for a given metabolite and the score vector of a given sample for PCs 1 and 2.

With `CCOC(=O)[C@@]1(CCCCCCOc2ccc(Cl)cc2)CO1` [etomoxir] the “oxidation of NADH” value (respiratory complex I) was “inhibit oxidation of NADH”, the respiration (3T3-L1 adipocytes) was “sufficient to inhibit respiration” and the respiration (HepG2 hepatoma cells) was “sufficient to inhibit respiration”. The intracellular pantothenate levels (BMDMs; 3 μM etomoxir) was “no change”, the “metabolite profile (PCA)” value (BMDMs; 3 μM etomoxir) was “no appreciable change” and the “intracellular pantothenate levels, increase” value (BMDMs; 200 μM etomoxir) was “three-fold”. The “metabolite composition (PCA)” value (BMDMs; 200 μM etomoxir) was “profound change”.
